Molecular target: human F508del-CFTR (Homo sapiens, UniProt P13569, DEL508-508)
Test: F508del-CFTR cell surface expression (corrector activity), DiscoveRx ß-galactosidase complementation chemiluminescence assay in recombinant U2OS cell line;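 note: U2OS cells co-expressing ProLink-tagged F508del-CFTR and a membrane-anchored enzyme acceptor, where more surface CFTR restores β-galactosidase activity measured by chemiluminescence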
Conditions: U2OS cell line, 16h compound incubation; for EC50: EC50, F508del-CFTR cell surface expression, geomean values; for Emax: U2OS, in relation to the Emax of the corrector lumacaftor (=100%), arithmetic mean values

Chain of human F508del-CFTR (P13569 with tags, fused parts or gaps DEL508-508): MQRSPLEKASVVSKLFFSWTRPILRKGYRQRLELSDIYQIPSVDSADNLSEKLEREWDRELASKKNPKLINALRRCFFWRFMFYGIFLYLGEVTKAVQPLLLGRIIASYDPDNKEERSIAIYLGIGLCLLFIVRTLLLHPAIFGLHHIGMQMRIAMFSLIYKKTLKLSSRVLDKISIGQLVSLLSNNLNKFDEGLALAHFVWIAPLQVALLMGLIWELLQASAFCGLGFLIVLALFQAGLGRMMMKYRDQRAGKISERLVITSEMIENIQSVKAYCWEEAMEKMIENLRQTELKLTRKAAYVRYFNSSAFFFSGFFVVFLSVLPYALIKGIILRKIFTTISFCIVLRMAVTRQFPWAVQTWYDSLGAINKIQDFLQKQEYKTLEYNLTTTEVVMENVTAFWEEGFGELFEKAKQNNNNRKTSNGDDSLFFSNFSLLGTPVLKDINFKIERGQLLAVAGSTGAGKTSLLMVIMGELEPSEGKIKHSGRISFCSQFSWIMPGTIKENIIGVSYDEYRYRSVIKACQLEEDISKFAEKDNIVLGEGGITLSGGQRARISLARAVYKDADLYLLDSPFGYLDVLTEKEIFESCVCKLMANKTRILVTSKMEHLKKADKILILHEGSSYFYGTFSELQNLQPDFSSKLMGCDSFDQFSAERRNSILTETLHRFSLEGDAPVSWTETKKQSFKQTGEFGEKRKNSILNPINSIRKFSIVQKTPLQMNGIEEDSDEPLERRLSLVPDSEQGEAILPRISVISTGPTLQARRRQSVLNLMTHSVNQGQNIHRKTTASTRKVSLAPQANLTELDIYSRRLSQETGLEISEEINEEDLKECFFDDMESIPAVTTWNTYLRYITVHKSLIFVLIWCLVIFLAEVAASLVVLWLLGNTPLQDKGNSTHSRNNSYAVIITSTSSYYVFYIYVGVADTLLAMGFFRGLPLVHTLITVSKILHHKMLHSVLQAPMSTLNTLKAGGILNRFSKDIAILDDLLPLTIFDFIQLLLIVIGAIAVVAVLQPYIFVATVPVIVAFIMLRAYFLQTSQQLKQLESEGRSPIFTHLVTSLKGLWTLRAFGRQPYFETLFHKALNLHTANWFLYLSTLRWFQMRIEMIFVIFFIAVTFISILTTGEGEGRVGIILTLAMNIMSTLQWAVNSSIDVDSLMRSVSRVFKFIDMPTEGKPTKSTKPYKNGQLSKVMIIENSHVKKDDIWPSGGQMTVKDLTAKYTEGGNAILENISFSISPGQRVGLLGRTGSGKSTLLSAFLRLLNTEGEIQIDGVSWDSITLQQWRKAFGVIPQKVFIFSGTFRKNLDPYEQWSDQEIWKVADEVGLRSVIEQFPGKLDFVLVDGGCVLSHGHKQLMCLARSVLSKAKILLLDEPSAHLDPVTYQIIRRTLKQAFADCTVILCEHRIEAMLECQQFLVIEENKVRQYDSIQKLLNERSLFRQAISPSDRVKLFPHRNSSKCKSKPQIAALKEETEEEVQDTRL

Row | Compound | EC50 | Emax
1 | CCc1ccc(CCNC(=O)[C@@H]2CC(=O)N(C)[C@@H](CC(C)C)C(=O)N(C)CC(=O)N[C@H](Cc3ccccc3)COc3ccncc3C(=O)N2)cc1 [Example 252, (3R,9S,13S)-3-benzyl-N-(4-ethylphenethyl)-9-isobutyl-7,10-dimethyl-5,8,11,15-tetraoxo-2,3,4,5,6,7,8,9,10,11,12,13,14,15-tetradecahydropyrido[3,4-p][1]oxa[4,7,10,14]tetraazacycloheptadecine-13-carboxamide] | 888 nM | 111%
2 | CC(C)C[C@H]1C(=O)N(CCC2CCCCC2)CC(=O)N[C@H](Cc2ccccc2)COc2ccc(Cl)cc2C(=O)N[C@H](C(=O)NCCc2ccc3c(c2)OCO3)CC(=O)N1C [Example 253, (3R,9S,13S)-N-(2-(benzo[d][1,3]dioxol-5-yl)ethyl)-3-benzyl-17-chloro-7-(2-cyclohexylethyl)-9-isobutyl-10-methyl-5,8,11,15-tetraoxo-2,3,4,5,6,7,8,9,10,11,12,13,14,15-tetradecahydrobenzo[p][1]oxa[4,7,10,14]tetraazacycloheptadecine-13-carboxamide] | 88 nM | 136%
3 | COc1cccc(CCNC(=O)[C@@H]2CC(=O)N(C)[C@@H](CC(C)C)C(=O)N(CCC3CCCCC3)CC(=O)N[C@H](Cc3ccccc3)COc3ccc(Cl)cc3C(=O)N2)c1 [Example 254, (3R,9S,13S)-3-benzyl-17-chloro-7-(2-cyclohexylethyl)-9-isobutyl-N-(3-methoxyphenethyl)-10-methyl-5,8,11,15-tetraoxo-2,3,4,5,6,7,8,9,10,11,12,13,14,15-tetradecahydrobenzo[p][1]oxa[4,7,10,14]tetraazacycloheptadecine-13-carboxamide] | 102 nM | 152%
4 | COc1cc(OC)c2c(c1)OC[C@@H](Cc1ccccc1)NC(=O)CN(CCC1CCCCC1)C(=O)[C@H](CC(C)C)N(C)C(=O)C[C@@H](C(=O)NCCc1ccc3c(c1)OCO3)NC2=O [Example 255, (3R,9S,13S)-N-(2-(benzo[d][1,3]dioxol-5-yl)ethyl)-3-benzyl-7-(2-cyclohexylethyl)-9-isobutyl-16,18-dimethoxy-10-methyl-5,8,11,15-tetraoxo-2,3,4,5,6,7,8,9,10,11,12,13,14,15-tetradecahydrobenzo[p][1]oxa[4,7,10,14]tetraazacycloheptadecine-13-carboxamide] | 183 nM | 299%
5 | COc1cccc(CCNC(=O)[C@@H]2CC(=O)N(C)[C@@H](CC(C)C)C(=O)N(CCC3CCCCC3)CC(=O)N[C@H](Cc3ccccc3)COc3cc(OC)cc(OC)c3C(=O)N2)c1 [Example 256, (3R,9S,13S)-3-benzyl-7-(2-cyclohexylethyl)-9-isobutyl-16,18-dimethoxy-N-(3-methoxyphenethyl)-10-methyl-5,8,11,15-tetraoxo-2,3,4,5,6,7,8,9,10,11,12,13,14,15-tetradecahydrobenzo[p][1]oxa[4,7,10,14]tetraazacycloheptadecine-13-carboxamide] | 147 nM | 319%
6 | COc1cccc2c1C(=O)N[C@H](C(=O)NCCc1ccc3c(c1)OCO3)CC(=O)N(C)CC(=O)N(CCC1CCCCC1)CC(=O)N[C@H](Cc1ccccc1)CO2 [Example 257, (3R,13S)-N-(2-(benzo[d][1,3]dioxol-5-yl)ethyl)-3-benzyl-7-(2-cyclohexylethyl)-16-methoxy-10-methyl-5,8,11,15-tetraoxo-2,3,4,5,6,7,8,9,10,11,12,13,14,15-tetradecahydrobenzo[p][1]oxa[4,7,10,14]tetraazacycloheptadecine-13-carboxamide] | 249 nM | 116%
7 | COc1cccc(CCNC(=O)[C@@H]2CC(=O)N(C)CC(=O)N(CCC3CCCCC3)CC(=O)N[C@H](Cc3ccccc3)COc3cccc(OC)c3C(=O)N2)c1 [Example 258, (3R,13S)-3-benzyl-7-(2-cyclohexylethyl)-16-methoxy-N-(3-methoxyphenethyl)-10-methyl-5,8,11,15-tetraoxo-2,3,4,5,6,7,8,9,10,11,12,13,14,15-tetradecahydrobenzo[p][1]oxa[4,7,10,14]tetraazacycloheptadecine-13-carboxamide] | 424 nM | 117%
8 | COc1cccc2c1C(=O)N[C@H](C(=O)NCCc1ccc3c(c1)OCCCC3)CC(=O)N(C)[C@@H](CC(C)C)C(=O)N1CCOC[C@@H]1C(=O)N[C@H](Cc1ccccc1)CO2 [Example 260, (7S,11S,20R,22aR)-20-benzyl-7-isobutyl-14-methoxy-8-methyl-6,9,13,22-tetraoxo-N-(2-(2,3,4,5-tetrahydrobenzo[b]oxepin-8-yl)ethyl)-1,3,4,6,7,8,9,10,11,12,13,19,20,21,22,22a-hexadecahydrobenzo[p][1,4]oxazino[3,4-f][1]oxa[4,7,10,14]tetraazacycloheptadecine-11-carboxamide] | 783 nM | 243%
9 | CC(C)C[C@H]1C(=O)N(CCC2CCCCC2)CC(=O)N[C@H](Cc2ccccc2)COc2ccncc2C(=O)N[C@H](C(=O)NCCc2ccc3c(c2)OCCC3)CC(=O)N1C [Example 261, (3R,9S,13S)-3-benzyl-N-(2-(chroman-7-yl)ethyl)-7-(2-cyclohexylethyl)-9-isobutyl-10-methyl-5,8,11,15-tetraoxo-2,3,4,5,6,7,8,9,10,11,12,13,14,15-tetradecahydropyrido[3,4-p][1]oxa[4,7,10,14]tetraazacycloheptadecine-13-carboxamide] | 327 nM | 215%
10 | CC(C)C[C@H]1C(=O)N(CCC2CCCCC2)CC(=O)N[C@H](Cc2ccccc2)COc2ccncc2C(=O)N[C@H](C(=O)NCCc2ccc3c(c2)OCC3)CC(=O)N1C [Example 262, (3R,9S,13S)-3-benzyl-7-(2-cyclohexylethyl)-N-(2-(2,3-dihydrobenzofuran-6-yl)ethyl)-9-isobutyl-10-methyl-5,8,11,15-tetraoxo-2,3,4,5,6,7,8,9,10,11,12,13,14,15-tetradecahydropyrido[3,4-p][1]oxa[4,7,10,14]tetraazacycloheptadecine-13-carboxamide] | 339 nM | 231%
11 | COc1cccc2c1C(=O)N[C@H](C(=O)NCCc1ccc3c(c1)OCO3)CC(=O)N(C)[C@@H](C)C(=O)N(CCC1CCCCC1)CC(=O)N[C@H](Cc1ccccc1)CO2 [Example 263, (3R,9S,13S)-N-(2-(benzo[d][1,3]dioxol-5-yl)ethyl)-3-benzyl-7-(2-cyclohexylethyl)-16-methoxy-9,10-dimethyl-5,8,11,15-tetraoxo-2,3,4,5,6,7,8,9,10,11,12,13,14,15-tetradecahydrobenzo[p][1]oxa[4,7,10,14]tetraazacycloheptadecine-13-carboxamide] | 448 nM | 140%
12 | COc1cccc(CCNC(=O)[C@@H]2CC(=O)N(C)[C@@H](C)C(=O)N(CCC3CCCCC3)CC(=O)N[C@H](Cc3ccccc3)COc3cccc(OC)c3C(=O)N2)c1 [Example 264, (3R,9S,13S)-3-benzyl-7-(2-cyclohexylethyl)-16-methoxy-N-(3-methoxyphenethyl)-9,10-dimethyl-5,8,11,15-tetraoxo-2,3,4,5,6,7,8,9,10,11,12,13,14,15-tetradecahydrobenzo[p][1]oxa[4,7,10,14]tetraazacycloheptadecine-13-carboxamide] | 442 nM | 117%
13 | CC(C)C[C@H]1C(=O)N(CCC2CCCCC2)CC(=O)N[C@H](Cc2ccccc2)COc2cnccc2C(=O)N[C@H](C(=O)NCCc2ccc3c(c2)OCO3)CC(=O)N1C [Example 265, (3R,9S,13S)-N-(2-(benzo[d][1,3]dioxol-5-yl)ethyl)-3-benzyl-7-(2-cyclohexylethyl)-9-isobutyl-10-methyl-5,8,11,15-tetraoxo-2,3,4,5,6,7,8,9,10,11,12,13,14,15-tetradecahydropyrido[4,3-p][1]oxa[4,7,10,14]tetraazacycloheptadecine-13-carboxamide] | 266 nM | 106%
14 | COc1cccc(CCNC(=O)[C@@H]2CC(=O)N(C)[C@@H](CC(C)C)C(=O)N(CCC3CCCCC3)CC(=O)N[C@H](Cc3ccccc3)COc3cnccc3C(=O)N2)c1 [Example 266, (3R,9S,13S)-3-benzyl-7-(2-cyclohexylethyl)-9-isobutyl-N-(3-methoxyphenethyl)-10-methyl-5,8,11,15-tetraoxo-2,3,4,5,6,7,8,9,10,11,12,13,14,15-tetradecahydropyrido[4,3-p][1]oxa[4,7,10,14]tetraazacycloheptadecine-13-carboxamide] | 357 nM | 136%
15 | CC(C)C[C@H]1C(=O)N(CCC2CCCCC2)CC(=O)N[C@H](Cc2ccccc2)COc2ccc3ccccc3c2C(=O)N[C@H](C(=O)NCCc2ccc3c(c2)OCO3)CC(=O)N1C [Example 267, (3S,7S,13R)-N-(2-(benzo[d][1,3]dioxol-5-yl)ethyl)-13-benzyl-9-(2-cyclohexylethyl)-7-isobutyl-6-methyl-1,5,8,11-tetraoxo-1,2,3,4,5,6,7,8,9,10,11,12,13,14-tetradecahydronaphtho[1,2-p][1]oxa[4,7,10,14]tetraazacycloheptadecine-3-carboxamide] | 107 nM | 275%
16 | COc1cccc(CCNC(=O)[C@@H]2CC(=O)N(C)[C@@H](CC(C)C)C(=O)N(CCC3CCCCC3)CC(=O)N[C@H](Cc3ccccc3)COc3ccc4ccccc4c3C(=O)N2)c1 [Example 268, (3S,7S,13R)-13-benzyl-9-(2-cyclohexylethyl)-7-isobutyl-N-(3-methoxyphenethyl)-6-methyl-1,5,8,11-tetraoxo-1,2,3,4,5,6,7,8,9,10,11,12,13,14-tetradecahydronaphtho[1,2-p][1]oxa[4,7,10,14]tetraazacycloheptadecine-3-carboxamide] | 100 nM | 273%
17 | CC(C)C[C@H]1C(=O)N(C)CC(=O)N[C@H](Cc2ccccc2)COc2ccc3ccccc3c2C(=O)N[C@H](C(=O)NCCc2ccc3c(c2)OCO3)CC(=O)N1C [Example 269, (3S,7S,13R)-N-(2-(benzo[d][1,3]dioxol-5-yl)ethyl)-13-benzyl-7-isobutyl-6,9-dimethyl-1,5,8,11-tetraoxo-1,2,3,4,5,6,7,8,9,10,11,12,13,14-tetradecahydronaphtho[1,2-p][1]oxa[4,7,10,14]tetraazacycloheptadecine-3-carboxamide] | 350 nM | 251%
